Patent US20060106042A1, “Substituted heterocyclpyrmidines” (priority 2002, published 2006)
Like-named read-outs stand apart in the source and are kept apart here.

Assays:
[1] = tested on: peach aphid (Myzus persicae); assay: Myzus test (cabbage leaves, dip); type: in vivo; settings: 500 ppm, cabbage leaves dipped
Procedure: (§1) • Solvent: 7 parts by weight of dimethylformamide • Emulsifier: 2 parts by weight of alkylaryl polyglycol ether
(§2) To produce a suitable preparation of active compound, 1 part by weight of active compound is mixed with the stated amounts of solvent and emulsifier, and the concentrate is diluted with emulsifier-containing water to the desired concentration.
Cabbage leaves (Brassica oleracea) which are heavily infested by the peach aphid (Myzus persicae) are treated by being dipped into the preparation of active compound of the desired concentration.
After the desired period of time, the kill in % is determined. 100% means that all aphids have been killed; 0% means that none of the aphids have been killed.

[2] = logP determination by reversed-phase HPLC (EEC Directive 79/831 Annex V.A8); type: physicochemical
Description: (a) Mobile phases for the determination of the acidic range: 0.1% aqueous phosphoric acid, acetonitrile; linear gradient from 10% acetonitrile to 90% acteonitrile—the corresponding measurement results in Table 1 are marked^a). […]

[3] = tested on: greenhouse red spider mite (Tetranychus urticae); assay: Tetranychus test (OP-resistant/dip treatment); type: in vivo; settings: 168 h, 100 ppm, after 7 d, OP-resistant, bean plants dipped, read-out: Kill rate in % after 7 d
Procedure: Tetranychus Test (OP-Resistant/Dip Treatment)
as §1
After the desired period of time, the effect in % is determined. 100% means that all spider mites have been killed; 0% means that none of the spider mites have been killed.

[4] = tested on: caterpillars of the diamondback moth (Plutella xylostella); assay: Plutella test (cabbage leaves, dip); type: in vivo; settings: 500 ppm, cabbage leaves dipped
Procedure: as §1, §2
Cabbage leaves (Brassica oleracea) are treated by being dipped into the preparation of active compound of the desired concentration and are populated with caterpillars of the diamondback moth (Plutella xylostella) while the leaves are still moist.
(§3) After the desired period of time, the kill in % is determined. 100% means that all caterpillars have been killed; 0% means that none of the caterpillars have been killed.

[5] = tested on: larvae of the mustard beetle (Phaedon cochleariae); assay: Phaedon larvae test (cabbage leaves, dip); type: in vivo; settings: 168 h, after 7 d, cabbage leaves dipped, read-out: Kill rate in % after 7 d
Procedure: as §1
After the desired period of time, the kill in % is determined. 100% means that all beetle larvae have been killed; 0% means that none of the beetle larvae have been killed.

[6] = tested on: Heliothis armigera caterpillars; assay: Heliothis armigera test (soya bean shoots, dip); type: in vivo; settings: 500 ppm, soya bean shoots dipped
Procedure: as §1, §2
Soya bean shoots (Glycine max) are treated by being dipped into the preparation of active compound of the desired concentration and are populated with Heliothis annigera caterpillars while the leaves are still moist.
as §3

[7] = tested on: cotton aphid (Aphis gossypii); assay: Aphis gossypii test (cotton leaves, dip); type: in vivo; settings: 500 ppm, cotton leaves dipped
Procedure: as §1, §2
Cotton leaves (Gossypium hirsutum) which are heavily infested by the cotton aphid (Aphis gossypii) are treated by being dipped into the preparation of active compound of the desired concentration.
After the desired period of time, the kill in % is determined. 100% means all aphids have been killed; 0% means that none of the aphids have been killed.

[8] = tested on: caterpillars of the armyworm (Spodoptera frugiperda); assay: Spodoptera frugiperda test (cabbage leaves, dip); type: in vivo; settings: 168 h, after 7 d, cabbage leaves dipped, read-out: Kill rate in % after 7 d
Procedure: Spodoptera frugiperda Test
as §1, §3

[9] = reversed-phase HPLC column (C18), pH 2.3, read-out: logP (pH 2.3)
[10] = reversed-phase HPLC column (C18); acidic range: 0.1% aqueous phosphoric acid/acetonitrile gradient, C18, 43° C.; read-out: logP a)

| SMILES | Kill rate in % after 6 d [1] | chromatographic logP [2, 9] | pest or weed control at 100 ppm [3] | Kill rate in % after 7 d [4] | pest or weed control at 500 ppm [5] | Kill rate in % after 7 d [6] | Kill rate in % after 6 d [7] | chromatographic logP [2, 10] | pest or weed control at 500 ppm [8] |
| --- | --- | --- | --- | --- | --- | --- | --- | --- | --- |
| FC(F)=CCCSc1nccc(-n2cccn2)n1 [Example 1, 2-[(4,4-difluoro-3-butenyl)-sulfanyl]-4-(pyrazol-1-yl)-pyrimidine] | 99% | 3.3 | 100% | 100% | 100% | 100% |  |  |  |
| FC(F)=CCCSc1nccc(-c2ccccn2)n1 [Example 2] | 100% | 3.33 |  |  | 100% |  | 99% |  |  |
| FC(F)=CCCSc1nccc(-c2nccc3ccccc23)n1 [Example 7] | 100% |  | 100% | 100% |  |  | 98% | 3.67 |  |
| COc1ccnc(-c2ccnc(SCCC=C(F)F)n2)c1 [Example 8] | 95% |  |  |  |  |  | 99% | 2.41 |  |
| FC(F)=CCCSc1nccc(-n2ccnn2)n1 [Example 25] |  |  | 100% | 100% |  | 100% |  | 2.62 |  |
| FC(F)=CCCSc1nccc(-n2nccn2)n1 [Example 26] | 99% |  |  |  |  |  | 95% | 2.7 | 100% |
| COc1cccnc1-c1ccnc(SCCC=C(F)F)n1 [Example 37] |  |  | 100% | 100% |  | 100% |  | 2.14 |  |
